From patent US11285127B2, “Compositions and methods for lowering triglycerides without raising LDL-C levels in a subject on concomitant statin therapy” (Amarin Pharmaceuticals Ireland Limited, priority 2013, dated 2022)

Tested on: patients with fasting triglyceride levels >200 mg/dl and <500 mg/dl despite statin therapy
Test: 12-week study: oxidized LDL
Format: in vivo, human
Conditions: MITT; for Oxidized LDL Percent change from Baseline Median (IQR): Week 12 endpoint; for Oxidized LDL Difference from placebo Estimated median: percent change from baseline to Week 12 endpoint
Source text: Parameters (a)-(z) can be measured in accordance with any clinically acceptable methodology. For example, triglycerides, total cholesterol, HDL-C and fasting blood sugar can be sample from serum and analyzed using standard photometry techniques. VLDL-TG, LDL-C and VLDL-C can be calculated or determined using serum lipoprotein fractionation by preparative ultracentrifugation and subsequent quantitative analysis by refractometry or by analytic ultracentrifugal methodology. Apo A1, Apo B and hsCRP can be determined from serum using standard nephelometry techniques. Lipoprotein (a) can be determined from serum using standard turbidimetric immunoassay techniques. LDL particle number and particle size can be determined using nuclear magnetic resonance (NMR) spectrometry. Remnants lipoproteins and LDL-phospholipase A2 can be determined from EDTA plasma or serum and serum, respectively, using enzymatic immunoseparation techniques. Oxidized LDL, intercellular adhesion molecule-1 and interleukin-2 levels can be determined from serum using standard enzyme immunoassay techniques. These techniques are described in detail in standard textbooks, for example Tietz Fundamentals of Clinical Chemistry, 6th Ed. (Burtis, Ashwood and Borter Eds.), WB Saunders Company.
A multi-center, placebo-controlled, randomized, double-blind, 12-week study was performed to evaluate the efficacy and safety of >96% E-EPA in patients with fasting triglyceride levels >200 mg/dl and <500 mg/dl despite statin therapy (the mean of two qualifying entry values needed to be >185 mg/dl and at least one of the values needed to be >200 mg/dl). The primary objective of the study was to determine the efficacy of >96% E-EPA 2 g daily and 4 g daily, compared to placebo, in lowering fasting TG levels in patients with high risk for cardiovascular disease and with fasting TG levels 200 mg/dl and <500 mg/dl, despite treatment to LDL-C goal on statin therapy.
The secondary objectives of this study were the following: • 1. To determine the safety and tolerability of >96% E-EPA 2 g daily and 4 g daily; • 2. To determine the effect of >96% E-EPA on lipid and apolipoprotein profiles including total cholesterol (TC), non-high-density lipoprotein cholesterol (non-HDL-C), low density lipoprotein cholesterol (LDL-C), high density lipoprotein cholesterol (HDL-C), and […]; • 3. To determine the effect of >96% E-EPA on lipoprotein associated phospholipase A2 (Lp-PLA2) from baseline to week 12; • 4. To determine the effect of >96% E-EPA on low-density lipoprotein (LDL) particle number and size; • 5. To determine the effect of >96% E-EPA on oxidized LDL; • 6. To determine the effect of >96% E-EPA on fasting plasma glucose (FPG) and hemoglobin A1c (HbA1c); • 7. To determine the effect of >96% E-EPA on insulin resistance; • 8. To determine the effect of >96% E-EPA on high-sensitivity C-reactive protein (hsCRP); • 9. To determine the effects of >96% E-EPA 2 g daily and 4 g daily on the incorporation of fatty acids into red blood cell membranes and into plasma phospholipids; • 10. To explore the relationship between baseline fasting TG levels and the reduction in fasting TG levels; and • 11. To explore the relationship between changes of fatty acid concentrations in plasma and red blood cell membranes, and the reduction in fasting TG levels.
The primary efficacy variable for the double-blind treatment period was percent change in TG from baseline to Week 12 endpoint. […]

CC/C=C\C/C=C\C/C=C\C/C=C\C/C=C\CCCC(=O)OCC [AMR101, ethyl eicosapentaenoate]
Oxidized LDL Week 12 EP Median (IQR) (AMR101 2 g/d + statin): 55.8 (22.8) U/L
Oxidized LDL Percent change from Baseline Median (IQR) (AMR101 2 g/d + statin): 2.6 (18.3) %
Oxidized LDL Difference from placebo Estimated median (AMR101 2 g/d + statin): −5.8%
Oxidized LDL Week 12 EP Median (IQR) (AMR101 4 g/d + statin): 51.4 (17.5) U/L
Oxidized LDL Percent change from Baseline Median (IQR) (AMR101 4 g/d + statin): −4.8 (19.6) %
Oxidized LDL Difference from placebo Estimated median (AMR101 4 g/d + statin): −13.3%
